Results published in publication PMC9356275, “A quantitative high-throughput screen identifies compounds that lower expression of the SCA2-and ALS-associated gene ATXN2” (The Journal of Biological Chemistry, 2022).
Where two headings read alike, the source gives them in different places.

What was measured:
ATXN2-luc [1] = test: MSSR pilot screen: ATXN2-luc luciferase assay (Bright-Glo) in H2 cells, single 10 μM dose; assay type: cell-based, human; settings: for SD from mean (ATXN2-luc, Z-score): H2 cells, single dose (title: 10 μM compound), overnight; for ¦Score/1SD¦: absolute score divided by 1SD (0.891 or 0.9)
ATXN2-luc [2] = test: Secondary assays: ATXN2-luc in S2 and H2 cells, 12 doses, Bright-Glo; assay type: cell-based, human; settings: summary data; for IC50: ATXN2-luc luciferase assays in H2 and S2 cells, 12 doses plus a zero dose, read-out: Mean IC50; for min ATXN2-luc (%): minimum ATXN2-luc signal over 12 doses, H2 and S2 cells
CMV-luc [3] = test: Secondary assays: CMV-luc in SC cells, Bright-Glo; assay type: cell-based, human; settings: minimum CMV-luc signal in SC cells over 12 doses; summary data
Description: (§1) Compounds were plated at 2× concentrations in phenol red–free DMEM in 25 μl in 384-well plates with each compound dose plated in triplicate. An equal volume of S2, H2, or SC cells (24,000 cells/well) suspended in phenol red–free DMEM with 10% fetal bovine serum and 1× penicillin/streptomycin were added. Cells were grown 24 h and then assayed first by using the CellTiter-Fluor reagent (20 μl) followed by the addition of Bright-Glo (65 μl) luciferase assay, using a multimode plate reader (Beckman; DT880). Values were reported as the mean ± SD with n = 3. IC50s were determined by the Hill coefficient method using an online tool (https://www.aatbio.com/tools/ic50-calculator).

[4] = Secondary assays: multiplexed cell viability (CellTiter-Fluor); settings: human
Description: (§2) The values for H2 and S2 were used as replicates to calculate IC50s and to assess cell viability.
as §1

ATXN2-luc [5] = test: MSSR hit retest: ATXN2-luc luciferase assay, average of H2 and S1 cells (1 and 10 uM); assay type: cell-based, human; settings: Homo sapiens; for activity at 1 µM: read-out: H2&S1 ave luc 1uM; for activity at 10 µM: head line r3 10uM
Source text: (§3) Supplement mmc2.xlsx, sheet "43 annotated compounds"

H2 and S1 cells = test: Paired MTT viability assay, average of H2 and S1 cells (1 and 10 uM); assay type: cell-based, human; settings: Homo sapiens
Source text: as §3

CMV-luc [6] = test: MSSR counterscreen: CMV-luc expression in HC cells; assay type: cell-based, human; settings: for CMV-luc, averages as percent of no compound control: HC cells, n=4 wells
ATXN2-luc [7] = test: NCATS qHTS (LOPAC pilot, primary and confirmation): ATXN2-luc in S2 cells, 1536-well, Steady-Glo; assay type: cell-based, human
Summary of the method: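 […] S2 cells expressing ATXN2-luc in phenol red–free DMEM screened in 1536-well qHTS format. Luciferase read by Steady-Glo luminescence after 5 min at room temperature (2 s exposure), multiplexed with CellTiter-Fluor viability.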

S2, H2 or SC cells = test: in vitro
Description: as §2, §1

[8] = pilot screen at 10 µM compound, H2 cells expressing ATXN2-luc
[9] = 1 uM compound, average of H2 and S1 cells
[10] = average of H2 and S1 cells, read-out: H2&S1 ave luc 10uM
[11] = 1 uM compound, read-out: H2&S1 ave MTT 1uM
[12] = 10 uM compound, read-out: H2&S1 ave MTT 10uM
[13] = Homo sapiens, LOPAC library screening optimization, logarithm of AC50 (negative values), read-out: Log AC50 (converted)
[14] = Homo sapiens, LOPAC library screening optimization, read-out: AC50
[15] = LOPAC library screening optimization, read-out: AC50

Row | IC50 (ATXN2-luc [2]; Homo sapiens) [nM] | Compound | min ATXN2-luc (%) (ATXN2-luc [2]) | min SC luc (%) (CMV-luc [3]) | viability at 24 h [4] [%] | other results
1 |  | C[C@H]1O[C@@H](O[C@H]2[C@@H](O)C[C@H](O[C@H]3[C@@H](O)C[C@H](O[C@H]4CC[C@@]5(C)[C@H](CC[C@@H]6[C@@H]5C[C@@H](O)[C@]5(C)[C@@H](C7=CC(=O)OC7)CC[C@]65O)C4)O[C@@H]3C)O[C@@H]2C)C[C@H](O)[C@@H]1O [Digoxin] | 9.041 | 107.579 | 67.9 | SD from mean (ATXN2-luc, Z-score) (ATXN2-luc [1]): -3.904 SD; SD from mean (pilot screen) (ATXN2-luc [1]; pilot screen): -3.904 SD; SD from mean (pilot screen) (ATXN2-luc [1]; [8]): -3.904; ¦Score/1SD¦ (ATXN2-luc [1]; pilot screen): 4.38; activity at 1 µM (ATXN2-luc [5]): 47%; activity (ATXN2-luc [5]; read-out: H2&S1 ave luc 10uM): 12%; viability at 1 µM (H2 and S1 cells; read-out: H2&S1 ave MTT 1uM, 1 uM compound): 78.7%; viability at 10 µM (H2 and S1 cells; read-out: H2&S1 ave MTT 10uM, 10 uM compound): 73.5%
2 |  | COc1ccc(CN2CCN(C(c3ccc(F)cc3)c3ccc(F)cc3)CC2)c(OC)c1OC [LOMERIZINE DiHCl] |  |  |  | SD from mean (ATXN2-luc, Z-score) (ATXN2-luc [1]): -2.782 SD; SD from mean (pilot screen) (ATXN2-luc [1]; pilot screen): -2.782 SD; SD from mean (pilot screen) (ATXN2-luc [1]; pilot screen, H2 cells expressing ATXN2-luc, single dose printed as 10 μM compound): -2.782; ¦Score/1SD¦ (ATXN2-luc [1]; pilot screen): 3.09; CMV-luc, averages as percent of no compound control (CMV-luc [6]; 0.1 uM compound): 97.7058% of no compound control; CMV-luc, averages as percent of no compound control (CMV-luc [6]; 1 uM compound): 102.901% of no compound control; CMV-luc, averages as percent of no compound control (CMV-luc [6]; 10 uM compound): 80.3815% of no compound control; inhibition at 1 µM (CMV-luc [6]; Homo sapiens, read-out: CMV-luc inhibition @ 1 uM): 0%; inhibition at 10 µM (CMV-luc [6]; Homo sapiens, read-out: CMV-luc inhibition @ 10 uM): 20%; ATXN2 luc activity (call) (CMV-luc [6]; summary call for the 12 pilot compounds tested on CMV-luc): Unclear; activity at 1 µM (ATXN2-luc [5]; [9]): 102%; activity at 10 µM (ATXN2-luc [5]; [10]): 55%; viability at 1 µM (H2 and S1 cells; [11]): 101%; viability at 10 µM (H2 and S1 cells; [12]): 37.6%
3 | 166 | O=c1[nH]c(=O)n([C@H]2C[C@H](O)[C@@H](CO)O2)cc1F [NCGC00023722-07, Floxuridine] | 25.6595 | 37.5061 | 97.9 | 
4 |  | N[C@@H](Cc1ccc(N(CCCl)CCCl)cc1)C(=O)O [NCGC00090757-05, Melphalan] | 44.8372 | 79.9664 | 89.3 | 
5 |  | CC[C@H](CO)Nc1nc(NCc2ccccc2)c2ncn(C(C)C)c2n1 [NCGC00094374-05, roscovitine] | 57.3224 | 82.4469 | 77.8 | AC50 (ATXN2-luc [7]; [13]): 28200 nM; AC50 (ATXN2-luc [7]; [14]): 28200 nM; Log AC50 (ATXN2-luc [7]; LOPAC library screening optimization, logarithm of AC50 (negative values)): -4.5; AC50 (ATXN2-luc [7]; [15]): 31600 nM
6 | 9770 | COc1cc2ncn(-c3cc(OCc4ccccc4C(F)(F)F)c(C(N)=O)s3)c2cc1OC [NCGC00242217-04, GW843682X] | 57.1311 | 87.9923 | 75.5 | 
7 |  | NC(=O)Nc1cc(-c2cccc(F)c2)sc1C(=O)N[C@H]1CCCNC1 [NCGC00242481-02, AZD7762] |  |  | 78.1 | 
8 | 162 | O=C(NC1CCNCC1)c1[nH]ncc1NC(=O)c1c(Cl)cccc1Cl [NCGC00263091-01, AT7519] | 14.5407 | 103.668 | 50.3 | 
9 | 3020 | S=C(NCc1ccc2c(c1)OCO2)N1CCN(c2ncnc3c2oc2ccccc23)CC1 [NCGC00263158-01, MP470] | 55.0637 | 74.2577 | 87.7 | 
10 | 3730 | CNC(=O)c1cc(Oc2ccc(NC(=O)Nc3cc(C(C)(C)C)nn3-c3ccc4ncccc4c3)c(F)c2)ccn1 [NCGC00263172-01, DCC-2036] | 27.0713 | 60.5803 | 56.6 | 
11 | 343 | C=CCn1c(=O)c2cnc(Nc3ccc(N4CCN(C)CC4)cc3)nc2n1-c1cccc(C(C)(C)O)n1 [NCGC00263183-01, MK 1775] | 21.7344 | 63.0447 | 77.9 | 
12 | 21100 | Cc1cc(Nc2cc(CN3CCOCC3)c3nc(C)c(Cc4ccc(Cl)cc4F)n3n2)n[nH]1 [NCGC00345461-02, LY2784544] | 23.1503 | 67.1857 | 81.6 | 
13 | 57500 | O=C1NC(=O)/C(=C/c2ccc3nccc(-c4ccncc4)c3c2)S1 [NCGC00346509-01, GSK 1059615] | 51.4419 | 85.5514 | 75.5 | 
14 |  | CC1(C)CC(=O)c2c(C(F)(F)F)nn(-c3ccc(C(N)=O)c(N[C@H]4CC[C@H](O)CC4)c3)c2C1 [NCGC00346633-01, SNX 2112] |  | 82.2819 | 83.3 | 
15 | 436 | CNC(=O)c1nn(C)c2c1C(C)(C)Cc1cnc(Nc3ccc(N4CCN(C)CC4)cc3)nc1-2 [NCGC00346673-01, PHA-848125] | 15.8759 | 96.2246 | 74.4 | 
16 | 178 | CC(C)c1cc(C(=O)N2Cc3ccc(CN4CCN(C)CC4)cc3C2)c(O)cc1O [NCGC00346674-01, AT13387] | 22.3111 | 71.1894 | 90.6 | 
17 |  | CCc1c(O)cc(O)c(C(=O)c2ccc(OCCN3CCOCC3)c(OC)c2)c1CC(=O)N(CCOC)CCOC [NCGC00346685-01, KW-2478] | 23.9372 | 105.888 |  | IC50 (ATXN2-luc [2]): 587 nM; min viability (%) (S2, H2 or SC cells): 97.6731%
18 |  | O=C(Nc1cccc(Nc2ncc(Br)c(NCCc3cnc[nH]3)n2)c1)N1CCCC1 [NCGC00346687-01, BX-912] | 54.9395 | 100.351 |  | IC50 (ATXN2-luc [2]): 8890 nM; min viability (%) (S2, H2 or SC cells): 84.397%
19 |  | Oc1ccc(-c2ccc(-c3cc(Nc4cccc(CNC5CC5)c4)n[nH]3)cc2)c(O)c1 [NCGC00346954-01] | 20.2623 | 54.3112 |  | IC50 (ATXN2-luc [2]): 545 nM; min viability (%) (S2, H2 or SC cells): 61.7259%

Row | Compound | IC50 (ATXN2-luc [2]; Homo sapiens) [nM] | min ATXN2-luc (%) (ATXN2-luc [2]) | min SC luc (%) (CMV-luc [3]) | viability at 24 h [4] [%] | other results
20 | CC[C@@]1(O)C(=O)OCc2c1cc1n(c2=O)Cc2cc3ccccc3nc2-1 [Camptothecine (S+)] | 40 | 14.3715 | 42.7084 | 92.1 | SD from mean (ATXN2-luc, Z-score) (ATXN2-luc [1]): -5.283 SD
21 | C=CCNC1=C2C[C@@H](C)C[C@H](OC)[C@H](O)[C@@H](C)/C=C(\C)[C@H](OC(N)=O)[C@@H](OC)/C=C\C=C(/C)C(=O)NC(=CC1=O)C2=O [NCGC00163424-03, tanespimycin] | 442 | 23.7455 | 96.2287 | 83.6 | 
22 | CN(C)CCN1C(=O)c2cccc3cc(N)cc(c23)C1=O [NCGC00346513-01, amonafide] | 1840 | 21.7231 | 69.6561 | 68.2 | 
23 | C[C@@H]1O[C@@H](O[C@H]2C[C@@H](O)[C@]3(CO)[C@H]4[C@H](O)C[C@]5(C)[C@@H](C6=CC(=O)OC6)CC[C@]5(O)[C@@H]4CC[C@]3(O)C2)[C@H](O)[C@H](O)[C@H]1O [OUABAIN] | 122 | 6.982 | 122.219 | 74.3 | SD from mean (ATXN2-luc, Z-score) (ATXN2-luc [1]): -3.832 SD; SD from mean (pilot screen) (ATXN2-luc [1]; pilot screen): -3.832 SD; SD from mean (pilot screen) (ATXN2-luc [1]; [8]): -3.832; ¦Score/1SD¦ (ATXN2-luc [1]; pilot screen): 4.26; AC50 (ATXN2-luc [7]; [13]): < 90 nM; AC50 (ATXN2-luc [7]; [14]): < 90 nM; Curve Class (ATXN2-luc [7]; LOPAC library (1,280 compounds) screening optimization, signed sub-classes (-1.1, -2.2, -3 ...)): -1.1; AC50 (ATXN2-luc [7]; [15]): 112 nM; activity at 1 µM (ATXN2-luc [5]; [9]): 14%; activity at 10 µM (ATXN2-luc [5]; [10]): 12%; viability at 1 µM (H2 and S1 cells; [11]): 51.8%; viability at 10 µM (H2 and S1 cells; [12]): 60.4%
